The results in this text go back to ChEMBL document CHEMBL1201862, “PubChem BioAssay data set” (2004).

What all share (test): NCI anticancer screen, dose series, 48 h
Experiment [1] deals with M14.
Experiment [2] deals with MOLT-4.
Experiment [3] has as its system RXF 393.
For experiment [4], the system named is OVCAR-8.
Experiment [5] deals with UO-31.
The subject of experiment [6] is 786-0.
Experiment [7] has as its system NCI-H23.
Experiment [8] has as its system SK-MEL-28.
Experiment [9] concerns HOP-62.
The test system of experiment [10] is SK-OV-3.
Experiment [11] concerns HT-29.
The test system of experiment [12] is MDA-MB-231.
In experiment [13] the test system is MDA-MB-435.
The subject of experiment [14] is DU-145.
Experiment [15] concerns SNB-19.
Experiment [16] relates to RPMI-8226.
Experiment [17] has as its system MDA-N.
For experiment [18], the system named is OVCAR-5.
Experiment [19] deals with SF-539.
In experiment [20] the test system is Malme-3M.

Structures are written as SMILES.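 The compound was tested at five concentrations on cells cultured in 96-well plates, with a 48-hour exposure period. GI50: concentration for 50% inhibition of growth.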 Activity calls are given as the source filed them. Rule as the data show it: active = GI50 up to about 1.1 µM and inactive = higher. A value given as a limit tells only on which side of the number the result lay.

As for `NC(CC1=CCC=CC1)C(=O)O` (stereo not drawn), the GI50 in [1] was 80.2 µM (inactive); in experiment [2] it was 62.2 µM (inactive); in experiment [3], 70.5 µM (inactive); in experiment [4], 67.1 µM (inactive); in [5], > 100 µM (inactive); in experiment [6], > 100 µM (inactive). Moreover, the GI50 in experiment [7] was > 100 µM (inactive); in experiment [8], 80.5 µM (inactive); in experiment [9], > 100 µM (inactive); in experiment [10], 98.2 µM (inactive); in experiment [11], 61.9 µM (inactive); in [12], > 100 µM (inactive). Further, the GI50 was 71.8 µM (inactive) in experiment [13]; > 100 µM (inactive) in [14]; > 100 µM (inactive) in experiment [15]; 9.2 µM (inactive) in experiment [16]; 59.2 µM (inactive) in [17]; > 100 µM (inactive) in [18].

As for `Sc1nnc(NNc2ccccc2)n1Nc1ccccc1`, the GI50 is 2.02 µM (inactive) in experiment [1]; 0.625 µM (active) in experiment [2]; 1.78 µM (inactive) in experiment [3]; 21.2 µM (inactive) in [4]; > 71 µM (inactive) in [6]; 28.2 µM (inactive) in experiment [7]. The GI50 in experiment [8] was > 100 µM (inactive); in experiment [9] it was 64.3 µM (inactive); in experiment [10], > 100 µM (inactive); in experiment [11], 4.76 µM (inactive); in experiment [12], 44.8 µM (inactive); in experiment [19] it was > 42.5 µM (inactive). Also, the GI50 in experiment [13] was 0.321 µM (active); in experiment [14], > 79.4 µM (inactive); in [15], > 75.9 µM (inactive); in experiment [16], 2.51 µM (inactive); in experiment [17] it was 2.05 µM (inactive); in [18] it was > 55.2 µM (inactive).

As for `CCn1c2ccccc2c2cc(NC(=O)c3c(C)nc(O)nc3NCCNCCO)ccc21`, the GI50 in [1], in [2], in experiment [3], in [4], in [5] and in experiment [20] was > 100 µM (inactive) each time. For the same compound, the GI50 in experiment [6], in experiment [7], in [8], in experiment [9], in [10] and in experiment [11] was > 100 µM (inactive) throughout. The GI50 in experiment [12], in [19], in experiment [13], in experiment [14], in experiment [15] and in experiment [17] was > 100 µM (inactive) throughout. In addition, the GI50 in experiment [18] is > 100 µM (inactive).

Take `O=c1c2sc3nc(NCCN4CCCCC4)ncc3c2ncn1-c1ccccc1`: the GI50 was 19.6 µM (inactive) in experiment [1]; 67.8 µM (inactive) in [2]; 20.6 µM (inactive) in experiment [3]; 45.5 µM (inactive) in experiment [4]; 19.7 µM (inactive) in [5]; 20.1 µM (inactive) in experiment [20]. The GI50 in experiment [6] was 80.7 µM (inactive); in [7], > 100 µM (inactive); in [8], 55.2 µM (inactive); in [9], 42.1 µM (inactive); in [10], > 100 µM (inactive); in [11] it was 30.5 µM (inactive). Further, the GI50 in experiment [12] is > 100 µM (inactive); in [13] it was 72.6 µM (inactive); in experiment [14] it was > 100 µM (inactive); in experiment [15], 67.9 µM (inactive); in experiment [16], 80.4 µM (inactive); in experiment [17] it was 80.5 µM (inactive). The GI50 in experiment [18] was > 100 µM (inactive).

Consider `O=[N+]([O-])c1cccc(-c2csc(N/N=C3\NC/C(=C/c4ccc5c(c4)OCO5)S3)n2)c1`, for which the GI50 in [1] was 23.3 µM (inactive); in experiment [2] it was 34.4 µM (inactive); in experiment [3] it was 22.6 µM (inactive); in experiment [4], 14.3 µM (inactive); in experiment [5] it was 25.9 µM (inactive); in [6], 38.4 µM (inactive). For the same compound, the GI50 was 20.1 µM (inactive) in [7]; 25.2 µM (inactive) in experiment [9]; 26.8 µM (inactive) in experiment [10]; 22.4 µM (inactive) in experiment [11]; 35.1 µM (inactive) in experiment [12]; 40.8 µM (inactive) in [19]. The GI50 in experiment [13] is 40.2 µM (inactive); in experiment [14], 33.8 µM (inactive); in [15] it was 20.5 µM (inactive); in experiment [16] it was 37.7 µM (inactive); in experiment [17], 30.4 µM (inactive); in experiment [18], 28.4 µM (inactive).

As to `COc1ccc(NC(=S)NC(=O)c2ccc3c(c2)Sc2ccccc2O3)c([N+](=O)[O-])c1`, the GI50 is 39.1 µM (inactive) in experiment [1]; 34.4 µM (inactive) in experiment [2]; 19.3 µM (inactive) in experiment [3]; 31 µM (inactive) in experiment [4]; 25.6 µM (inactive) in experiment [5]; 14.4 µM (inactive) in experiment [20]. Besides, the GI50 in experiment [6] is 17.9 µM (inactive); in [7], 83.2 µM (inactive); in experiment [8] it was 40.1 µM (inactive); in experiment [9], 33 µM (inactive); in [10], 29.9 µM (inactive); in experiment [11], 76.6 µM (inactive). In addition, the GI50 in experiment [12] is 22.9 µM (inactive); in experiment [19], 24.9 µM (inactive); in [13], 55.8 µM (inactive); in [14] it was 26.9 µM (inactive); in experiment [15] it was 21.9 µM (inactive); in experiment [17] it was 44.5 µM (inactive). In experiment [18], the GI50 was > 100 µM (inactive).

For the compound `CCOP(=O)(OCC)C(C(=O)OC)C(=O)C(=O)Nc1cccc(O)c1` (stereo not drawn), the GI50 in experiment [1], in experiment [2], in experiment [3], in [4], in experiment [5] and in [20] was > 100 µM (inactive) each time. Also, the GI50 in experiment [6], in experiment [7], in experiment [8], in experiment [9], in experiment [10] and in experiment [11] was > 100 µM (inactive) each time. Further, the GI50 in experiment [12], in experiment [19], in experiment [13], in experiment [14], in experiment [15] and in [17] was > 100 µM (inactive) each time. In experiment [18], the GI50 was > 100 µM (inactive).

As to `CN(C)/C=N\c1nncc2[nH]nnc12`, the GI50 in experiment [1] is > 100 µM (inactive); in experiment [2] it was 54.3 µM (inactive); in experiment [3], > 100 µM (inactive); in experiment [4] it was > 100 µM (inactive); in experiment [5] it was > 100 µM (inactive); in [6], > 100 µM (inactive). For the same compound, the GI50 in experiment [7], in [8], in experiment [9], in [11], in [12] and in experiment [19] was > 100 µM (inactive) in each case. The GI50 in experiment [13], in [14], in [15], in [16], in experiment [17] and in experiment [18] was > 100 µM (inactive) throughout.

In the case of `C[Si](C)(C)OC1c2[nH]c3ccccc3c2CN2C(=O)CCC12` (stereo not drawn), the GI50 in [1], in experiment [2], in [4], in experiment [5], in [6] and in experiment [8] was > 100 µM (inactive) in each case. Moreover, the GI50 in [9], in experiment [10], in experiment [11], in [12], in experiment [19] and in [13] was > 100 µM (inactive) throughout. Also, the GI50 in experiment [14], in experiment [15], in experiment [16], in experiment [17] and in [18] was > 100 µM (inactive) each time.

For `CC(=O)OCCc1cc2ccccc2oc1=O`, the GI50 in [1], in experiment [2], in experiment [3], in [4], in experiment [5] and in experiment [20] was > 100 µM (inactive) each time. The GI50 in experiment [6], in experiment [7], in [8], in experiment [9], in [11] and in experiment [12] was > 100 µM (inactive) in each case. In addition, the GI50 in experiment [19], in experiment [13], in experiment [14], in [15], in experiment [16] and in experiment [17] was > 100 µM (inactive) each time. For the same compound, the GI50 in experiment [18] was > 100 µM (inactive).

Take `CN(O)C(=O)Cc1ccc(OCc2cccc(Cl)c2)cc1`: the GI50 in experiment [1], in [2], in [3], in experiment [4], in experiment [5] and in experiment [6] was > 100 µM (inactive) throughout. Also, the GI50 in experiment [7], in experiment [8], in experiment [9], in experiment [10], in [11] and in experiment [12] was > 100 µM (inactive) each time. Moreover, the GI50 in experiment [19], in experiment [13], in experiment [14], in experiment [15], in [16] and in experiment [17] was > 100 µM (inactive) in each case. Further, the GI50 in experiment [18] is > 100 µM (inactive).
